# Results: US9272990B2, “Lysophosphatidic acid receptor antagonists and their use in the treatment fibrosis” (AMIRA PHARMACEUTICALS, INC., priority 2010, dated 2016)
# Molecular target: T1, Human LPA1 (Homo sapiens, UniProt Q92633)
# T1 construct: the full-length cDNA for human LPA1 was obtained by PCR of the reverse transcription reaction; expressed in transfected cells
# Experiment: LPA1 calcium flux assay
# Assay type: cell-based
# Conditions: CHO cells expressing human LPA1, stimulated with 10 nM LPA; read-out: LPA1 Ca^2+ flux
# Procedure: A 1.1 kb cDNA encoding the human LPA1 receptor was cloned from human lung. Human lung RNA (Clontech Laboratories, Inc. USA) was reverse transcribed using the RETROSCRIPT® kit (Ambion, Inc.) and the full-length cDNA for human LPA1 was obtained by PCR of the reverse transcription reaction. The nucleotide sequence of the cloned human LPA1 was determined by sequencing and confirmed to be identical to the published human LPA1 sequence (An et al., Biochem. Biophys. Res. Commun. 231:619 (1997). The cDNA was cloned into the pcDNA5/FRT expression plasmid and transfected in CHO cells using Lipofectamine 2000 (Invitrogen Corp., USA). Clones stably expressing human LPA1 were selected using hygromycin and identified as cells that show Ca-influx in response to LPA.
# Human LPA1 or LPA3 expressing CHO cells are seeded at 20,000-45,000 cells per well in a 96-well poly-D-lysine coated plate one or two days before the assay. Prior to the assay, the cells are washed once with PBS and then cultured in serum-free media overnight. On the day of the assay, a calcium indicator dye (Calcium 4, Molecular Devices) in assay buffer (HBSS with Ca^2+ and Mg^2+ and containing 20 mM Hepes and 0.3% fatty-acid free human serum albumin) is added to each well and incubation continued for 1 hour at 37° C. 10 μl of test compounds in 2.5% DMSO are added to the cells and incubation continued at room temperature for 30 minutes. Cells are the stimulated by the addition of 10 nM LPA and intracellular Ca^2+ measured using the FLEXSTATION® 3 (Molecular Devices). IC50s are determined using Graphpad prism analysis of drug titration curves.
# T1 sequence (Q92633 whole entry): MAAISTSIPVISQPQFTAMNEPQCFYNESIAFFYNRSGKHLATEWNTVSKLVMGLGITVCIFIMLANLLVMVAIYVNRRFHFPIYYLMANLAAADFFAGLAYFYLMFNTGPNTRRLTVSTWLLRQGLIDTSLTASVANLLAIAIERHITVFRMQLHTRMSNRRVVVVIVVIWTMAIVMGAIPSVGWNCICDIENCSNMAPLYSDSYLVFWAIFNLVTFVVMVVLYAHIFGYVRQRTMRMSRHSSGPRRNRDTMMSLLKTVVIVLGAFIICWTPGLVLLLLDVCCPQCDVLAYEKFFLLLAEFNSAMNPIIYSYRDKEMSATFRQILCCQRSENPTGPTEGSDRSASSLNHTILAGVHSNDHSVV
row,IC50,SMILES
1,< 300 nM,"Cn1ncc(-c2ccc(-c3ccc(C4(CC(=O)O)CC4)cc3)cc2)c1C(O)CCCc1ccccc1 (centres unmarked) [Compound 1-10, (1-{4′-[5-(1-hydroxy-4-phenyl-butyl)-1-methyl-1H-pyrazol-4-yl]-biphenyl-4-yl}-cyclopropyl)-acetic acid]"
2,< 300 nM,"O=C(O)CC1(c2ccc(-c3ccc(-c4ccsc4C(O)CCCc4ccccc4)cc3)cc2)CC1 (centres unmarked) [Compound 1-13, (1-{4′-[2-(1-hydroxy-4-phenyl-butyl)-thiophen-3-yl]-biphenyl-4-yl}-cyclopropyl)-acetic acid]"
3,< 300 nM,"O=C(O)CC1(c2ccc(-c3ccc(-c4ncccc4C(O)CCCc4ccccc4)cc3)cc2)CC1 (centres unmarked) [Compound 1-12, (1-{4′-[3-(1-hydroxy-4-phenyl-butyl)-pyridin-2-yl]-biphenyl-4-yl}-cyclopropyl)-acetic acid]"
4,< 300 nM,"CCn1ncc(-c2ccc(-c3ccc(C4(CC(=O)O)CC4)cc3)cc2)c1C(O)CCCc1ccccc1 (centres unmarked) [Compound 1-24, (1-{4′-[1-ethyl-5-(1-hydroxy-4-phenyl-butyl)-1H-pyrazol-4-yl]-biphenyl-4-yl}-cyclopropyl)-acetic acid]"
5,< 300 nM,"O=C(O)C1(c2ccc(-c3ccc(-c4ccsc4C(O)CCCc4ccccc4)cc3)cc2)CC1 (centres unmarked) [Compound 1-6, 1-{4′-[2-(1-hydroxy-4-phenyl-butyl)-thiophen-3-yl]-biphenyl-4-yl}-cyclopropanecarboxylic acid]"

# The next lines start with the molecule.
row,SMILES,IC50
1,"Cn1ncc(-c2ccc(-c3ccc(C4(C(=O)O)CC4)cc3)cc2)c1C(O)c1cn(Cc2ccccc2)nn1 (centres unmarked) [Compound 1-22, 1-(4′-{5-[(1-benzyl-1H-[1,2,3]triazol-4-yl)-hydroxy-methyl]-1-methyl-1H-pyrazol-4-yl}-biphenyl-4-yl)-cyclopropanecarboxylic acid]",< 300 nM
2,"O=C(O)C1(c2ccc(-c3ccc(-c4ncc5ccccc5c4C(O)CCCc4ccccc4)cc3)cc2)CC1 (centres unmarked) [Compound 1-16, 1-{4′-[4-(1-hydroxy-4-phenyl-butyl)-isoquinolin-3-yl]-biphenyl-4-yl}-cyclopropanecarboxylic acid]",1000 to 10000 nM
3,"O=C(O)C1(c2ccc(-c3ccc(-c4ncccc4C(O)CCCc4ccccc4)cc3)cc2)CC1 (centres unmarked) [Compound 1-5, 1-{4′-[3-(1-hydroxy-4-phenyl-butyl)-pyridin-2-yl]-biphenyl-4-yl}-cyclopropanecarboxylic acid]",< 300 nM
4,"O=C(O)C1(c2ccc(-c3ccc(-c4ccccc4C(O)CCCc4ccccc4)cc3)cc2)CC1 (centres unmarked) [Compound 1-7, 1-[2-(1-hydroxy-4-phenyl-butyl)-[1,1′;4′,1″]terphenyl-4″-yl]-cyclopropanecarboxylic acid]",< 300 nM
5,"C[C@@H](OC(=O)Nc1ncoc1-c1ccc(-c2ccc(C3(C(=O)O)CC3)cc2)cc1)c1ccccc1 [Compound 1-4, 1-{4′-[4-((R)-1-phenyl-ethoxycarbonylamino)-oxazol-5-yl]-biphenyl-4-yl}-cyclopropanecarboxylic acid]",< 300 nM
6,"CC(CCc1ccc(Cl)cc1)Nc1c(-c2ccc(-c3ccc(C4(C(=O)O)CC4)cc3)cc2)cnn1C (centres unmarked) [Compound 1-21, 1-(4′-{5-[3-(4-chloro-phenyl)-1-methyl-propylamino]-1-methyl-1H-pyrazol-4-yl}-biphenyl-4-yl)-cyclopropanecarboxylic acid]",< 300 nM
7,"O=C(O)C1(c2ccc(-c3ccc(-c4cnccc4C(O)CCCc4ccccc4)cc3)cc2)CC1 (centres unmarked) [Compound 1-17, 1-{4′-[4-(1-hydroxy-4-phenyl-butyl)-pyridin-3-yl]-biphenyl-4-yl}-cyclopropanecarboxylic acid]",< 300 nM
8,"O=C(O)C1(c2ccc(-c3ccc(-c4sccc4C(O)CCCc4ccccc4)cc3)cc2)CC1 (single isomer, unassigned) [Compound 1-27, 1-{4′-[3-(1-hydroxy-4-phenyl-butyl)-thiophen-2-yl]-biphenyl-4-yl}-cyclopropanecarboxylic acid]",< 300 nM
9,"O=C(O)C1(c2ccc(-c3ccc(-c4ccncc4C(O)CCCc4ccccc4)cc3)cc2)CC1 (centres unmarked) [Compound 1-9, 1-{4′-[3-(1-Hydroxy-4-phenyl-butyl)-pyridin-4-yl]-biphenyl-4-yl}-cyclopropanecarboxylic acid]",< 300 nM
